Measurements reported in patent US4628089A, “Pyrido(2,3-D)pyrimidines” (Southern Research Institute, priority 1985, dated 1986).

What was measured:
[1] = tested on: mammalian dihydrofolate reductase; details: Grivsky et al., J. Med. Chem., 23, 327 (1980); cited from earlier work
hypertensive rat = details: L. R. Bennett et al, J. Med. Chem., 24, 382 (1981); cited from earlier work
thymidylate synthetase = details: background; cited from earlier work
[2] = tested on: lymphocytic leukemia P388; experiment: Activity against lymphocytic leukemia P388 in mice; type: in vivo, mouse (CDF1 mice); details: ip, qd 1-5 days, 10^6 P388 cells ip, CDF1 mice
[3] = tested on: Human epidermoid carcinoma cell No. 2; experiment: Cell culture cytotoxicity, inhibition of colony formation after 12 days; type: cell-based; details: 288 h, colony formation after 12 days in plastic flask, read-out: ED50 (concentration inhibiting colony formation by 50%)
Excerpt: ^a Human epidermoid carcinoma cell No. 2.
^c Concentrations inhibiting colony formation by 50% after 12 days as
determined in plastic flask.

dihydrofolate reductase = details: background; cited from earlier work

For `COc1ccc(OC)c(Cc2cnc3nc(N)nc(N)c3c2C)c1`, the “inhibition of mammalian dihydrofolate reductase” value [1] is given as “potent lipid-soluble inhibitor of mammalian dihydrofolate reductase”.

For `Cc1ncc2cc(-c3c(Cl)cccc3Cl)c(N)nc2n1`, the “blood pressure in the hypertensive rat” value (hypertensive rat) is listed as “lowered blood pressure”.

In the case of `C#CCN(Cc1ccc2nc(N)nc(O)c2c1)c1ccc(C(=O)N[C@@H](CCC(=O)O)C(=O)O)cc1` [5,8-dideaza-10-propargylfolic acid, N-[4-[N-[(2-amino-4-hydroxy-6-quinazolinyl)methyl]prop-2-ynylamino]benzoyl]-L-glutamic acid], the “inhibition of thymidylate synthetase” value (thymidylate synthetase) is listed as “potent inhibitor of thymidylate synthetase”.

For `CN(Cc1cnc2nc(N)[nH]c(=O)c2c1)c1ccc(C(=O)N[C@@H](CCC(=O)O)C(=O)O)cc1` [I (R = CH3), N-[4[[(2-amino-4(3H)-oxopyrido[2,3-d]-pyrimidin-6-yl)methyl]methylamino]benzoyl]-L-glutamic acid], the “% ILS” value ([2]; 200 mg/kg) was 11% and the IC50 [3] was 11200 nM.

In the case of `Nc1nc2ncc(CNc3ccc(C(=O)N[C@@H](CCC(=O)O)C(=O)O)cc3)cc2c(=O)[nH]1` [I (R = H), N-[4-[(2-Amino-4(3H)-oxopyrido[2,3-d]pyrimidin-6-yl)methylamino]benzoyl]-L-glutamic Acid], the “% ILS” value ([2]; 100 mg/kg) is reported as 17% and the IC50 [3] is reported as 6100 nM.

In the case of `CN(Cc1cnc2nc(N)nc(N)c2c1)c1ccc(C(=O)N[C@@H](CCC(=O)O)C(=O)O)cc1` [II (R = CH3), N-[4-[[(2,4-Diaminopyrido[2,3-d]pyrimidine-6-yl)methyl]methylamino]benzoyl]-L-glutamic acid], the 30th day survivor ([2]; 4 mg/kg) is reported as “One”, the “% ILS” value ([2]; 4 mg/kg) is reported as 92% and the IC50 [3] is reported as 4 nM.

`Nc1nc(N)c2cc(CNc3ccc(C(=O)N[C@@H](CCC(=O)O)C(=O)O)cc3)cnc2n1` [II (R = H), N-[4-[(2,4-Diaminopyrido[2,3-d]pyrimidine-6-yl)methylamino]benzoyl]-L-glutamic acid] gave an IC50 [3] of 13 nM.

In the case of `CN(Cc1cnc2nc(N)nc(N)c2n1)c1ccc(C(=O)N[C@@H](CCC(=O)O)C(=O)O)cc1` [Methotrexate, reference compound], the IC50 [3] is given as 1 nM and the “inhibition of dihydrofolate reductase” value (dihydrofolate reductase) is given as “Powerful dihydrofolate reductase inhibitors”.

For `CCOC(=O)CC[C@H](NC(=O)c1ccc(NCc2cnc3nc(N)nc(N)c3c2)cc1)C(=O)OCC` [VII (R = H; R1 = C2 H5), Diethyl N-[4-[(2,4-diaminopyrido[2,3-d]pyrimidine-6-yl)methylamino]benzoyl]-L-glutamate], the “% ILS” value ([2]; 1 mg/kg) was 118% and the IC50 [3] was 52 nM.
